These results are taken from patent EP4548971A1, “1,4-BENZOTHIAZEPINES AND RELATED COMPOUNDS WITH CYCLOPROPANOL GROUPS AS MULTI-TARGETED DRUGS” (Georg-August-Universität Göttingen Stiftung Öffentlichen …, priority 2023, dated 2025).

The assay has as its target T1, SERCA2a (Mus musculus, UniProt O55143).
T1 construct: host or cells: HL-1 cardiac cells
Kind of assay: NADH-coupled ATPase assay on microsomal membrane vesicles from mouse heart ventricles (mouse SR). The settings on record: for SERCA2a mouse SR effect class: 10 µM on microsomal membrane vesicles. The format is biochemical. On the set-up: key to SERCA2a mouse SR effect class: +++: a strong effect, comparable to or greater than that of a known compounds at a given concentration (25 µM in RyR2 R-CEPIA1er assay, 10 µM in caffeine assay and on microsomal membrane vesicles); ++: moderate effect; +: observable effect; -: no effect. The procedure:
All animal procedures were performed in accordance with Directive 2010/63/EU of the European Parliament and the Council on the protection of animals used in research, as well as Animal Welfare Law of the Federal Republic of Germany (Tierschutzgesetz der Bundesrepublik Deutschland, TierSchG). […] All mice were housed with a 12 hours light/dark cycle with free access to food and water. Adult C57BL/6N mice of both genders were sedated with isoflurane in a sealed container and quickly euthanized by cervical dislocation. Heart ventricles were taken out instantly, washed with ice cold PBS plus complete, cut into smaller pieces and snap frozen in liquid nitrogen straight away.
Thawed on ice lysis buffer (10mM EDTA, 10mM HEPES, cOmplete, pH 7.4) was added and the ventricles were homogenized with a Qiagen cellruptor for 20 s. On ice an equal volume of restoration buffer (500 mM sucrose, 10 mM HEPES, cOmplete, pH7.2) was added and briefly mixed. The homogenate was centrifuged at 10000 × g for 20 min at 4° C. The supernatant was collected and centrifuged again for another hour (100000 × g at 4°C). Then the pellet was carefully resuspended in resuspension buffer (250 mM sucrose, 10 mM HEPES, cOmplete, pH 7.2) on ice by pipetting the solution up and down until fully dissolved. The obtained solution was diluted to a protein concentration of 5 µg/µl with the resuspension buffer and the aliquots were snap frozen in liquid nitrogen and then stored at -80 °C until usage.
To determine whether new compounds could increase the SERCA2a activity, HEK-293 microsomes (40 - 150 µg of total protein) or mouse ventricular microsomes (1 - 20 µg of total protein) were diluted in 100 µl of the assay buffer used for measurement of SERCA activity (described below) and incubated at room temperature for 5 minutes prior to the experiments. The measurements of SERCA2a activity were made at 28 °C by using a NADH -coupled ATPase assay. Briefly, the assay buffer contained 60 mM MOPS, 120 mM KCI, 6 mM MgCl2, 1 mM EGTA, 5 mM NaN3, 0.5 mM phosphoenolpyruvate and 1.5 mM CaCl2, pH 7.0. Before the reaction was started by the injection of […] ATP (resulting in 2 mM final concentration in the well), 5 units/mL of both lactate dehydrogenase and pyruvate kinase, 0.5 mM NADH, and 1 µM Ca^2+ ionophore A-23187 (Sigma, C-7522) were added to the diluted sample with or without the tested compound. The 1.5 mM Ca/EGTA buffer has a free Ca^2+ concentration of about 200 µM. The NADH fluorescence decrease was recorded each 2 s for 10 min course on a multiwell plate reader TECAN Spark 20M in 96-well glass bottom plates (MatTek Corporation; Cat. No. PBK96G-1.5-5-F). Fluorescence was evoked by 380 nm excitation wavelength and collected in a bottom-read mode at 425 nm. Exposure - 30 flashes, excitation bandwidth - 10 nm, emission bandwidth - 10 nm. ATP was injected at 30 s. […] The data were analyzed with computer software GraphPad Prism version 8.3.1 (GraphPad Software, Inc.). The difference in signal decrease with and without microsomes was taken as an indicator for the additional ATPase activity performed by SERCA2a. The obtained values for maximal SERCA2a activity were normalized for total protein concentration. Maximal SERCA2a activity values are reported as percentages of control (0.1% DMSO) values. Microsomal samples that were kept on ice until usage and set to 100%.
In an NADH assay, the change in NADH coenzyme fluorescence reflects the level of the consumption of ATP, which can be taken as an indicator of SERCA2 activity [G. B. Warren, P. A. Toon, N. J. Birdsall, A. G. Lee, J. C. Metcalfe, Reconstitution of a calcium pump using defined membrane components. Proc. Natl. Acad. Sci. U.S.A. 1974, 71, 622 - 626]. ATP hydrolysis by SERCA2 is required to pump calcium ions into the SER. A higher rate of ATP hydrolysis corresponds to enhanced SERCA2 ATPase activity that leads to a greater pumping of calcium ions into the SR. […]

Molecules are shown by their SMILES.

T1 sequence (O55143 1-998 isoform O55143-2): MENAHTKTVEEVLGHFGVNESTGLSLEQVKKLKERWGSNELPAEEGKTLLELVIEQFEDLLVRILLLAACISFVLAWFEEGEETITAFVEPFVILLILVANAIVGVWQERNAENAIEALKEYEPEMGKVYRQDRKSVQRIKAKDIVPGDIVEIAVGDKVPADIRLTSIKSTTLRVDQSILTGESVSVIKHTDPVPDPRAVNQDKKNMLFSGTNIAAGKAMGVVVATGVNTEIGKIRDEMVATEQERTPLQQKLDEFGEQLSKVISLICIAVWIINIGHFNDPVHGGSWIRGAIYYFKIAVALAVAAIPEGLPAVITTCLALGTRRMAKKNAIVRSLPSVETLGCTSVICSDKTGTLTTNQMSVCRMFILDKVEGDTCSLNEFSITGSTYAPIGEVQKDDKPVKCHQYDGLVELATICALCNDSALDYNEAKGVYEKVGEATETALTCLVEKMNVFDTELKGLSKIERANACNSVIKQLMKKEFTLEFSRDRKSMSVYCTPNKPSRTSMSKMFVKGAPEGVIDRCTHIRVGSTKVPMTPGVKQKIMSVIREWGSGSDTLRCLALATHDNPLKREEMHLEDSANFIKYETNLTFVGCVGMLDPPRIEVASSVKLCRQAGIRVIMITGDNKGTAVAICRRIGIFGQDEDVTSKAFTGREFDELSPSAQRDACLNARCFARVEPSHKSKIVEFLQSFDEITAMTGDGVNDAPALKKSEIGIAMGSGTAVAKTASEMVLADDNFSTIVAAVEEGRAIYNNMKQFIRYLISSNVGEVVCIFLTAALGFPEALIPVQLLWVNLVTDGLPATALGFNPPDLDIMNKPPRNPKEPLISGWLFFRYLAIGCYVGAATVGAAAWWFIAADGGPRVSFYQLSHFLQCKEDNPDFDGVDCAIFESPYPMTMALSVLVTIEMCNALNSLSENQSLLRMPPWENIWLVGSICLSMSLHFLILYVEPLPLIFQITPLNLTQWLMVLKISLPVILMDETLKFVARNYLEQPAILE

On to `COc1ccc2c(c1)CN(CCCCC1(O)CC1)CCS2` [Compound 13d, 1-(4-(7-methoxy-2,3-dihydrobenzo[1,4-f]thiazepin-4(5H)-yl)butyl)cyclopropan-1-ol], for which the “SERCA2a mouse SR effect class” value is “++”. The “effect on ATPase activity, in words” value (cardiac SER vesicles from mouse heart, 10 µM (3 µM for 14b), vs. 0.1 v/v% DMSO) is “moderate”.
Turning to `COc1ccc2c(c1)CN(CCCCN(CCCCC1(O)CC1)CCCCC1(O)CC1)CCS2` [Compound 14a, 1,1'-(((4-(7-Methoxy-2,3-dihydrobenzo[1,4-f]thiazepin-4(5H)-yl)butyl)azanediyl)bis(butane-4,1-diyl))bis(cyclopropan-1-ol)], the “SERCA2a mouse SR effect class” value is reported as “+++”. Under “ATPase activity, range after the semicolon is not explained”, the EC50 is 383 nM.
Regarding `COc1ccc(OCCCNCCCCC2(O)CC2)cc1` [Compound 13b, 1-(4-((3-(4-methoxyphenoxy)propyl)amino)butyl)cyclopropan-1-ol], the “SERCA2a mouse SR effect class” value is recorded as “+”.
Take `COc1ccc(SCCCN(CCCCC2(O)CC2)CCCCC2(O)CC2)cc1` [Compound 14c, 1,1'-(((3-((4-Methoxyphenyl)thio)propyl)azanediyl)bis(butane-4,1-diyl))bis(cyclopropan-1-ol)]: the “SERCA2a mouse SR effect class” value is on record as “+”.
The same measure, in the same setting: for `COc1ccc(SCCCNCCCCC2(O)CC2)cc1` [Compound 13c, 1-(4-((3-((4-Methoxyphenyl)thio)propyl)amino)butyl)cyclopropan-1-ol] the value was “+++”.
Turning to `COc1ccc2c(c1)CN(Cc1ccc(C(=O)O)cc1)CCS2` [ARM210, reference compound], the “SERCA2a mouse SR effect class” value is “++”.
Same read-out and setting: for `COc1ccc2c(c1)CN(CCCCNCCCCC1(O)CC1)CCS2` [Compound 13a, 1-(4-((4-(7-Methoxy-2,3-dihydrobenzo[1,4-f]-thiazepin-4(5H)-yl)butyl)amino)butyl)cyclopropan-1-ol] the value was “+”.
